US11542271B2, “Fused heteroaromatic-aniline compounds for treatment of dermal disorders” (NFlection Therapeutics, Inc., priority 2017, dated 2023)
Read-outs that look alike come from different tables or passages of the source.

Key:
[1] = S9 Stability Assay, human liver S9 fraction; format: in vitro ADME; conditions: for half-life at 1 μM / microsomal CLint at 1 μM: human liver S9 fraction, pH 7.4
Protocol: Compounds were assessed for metabolic stability in human skin by assessing their rate of disappearance from human S9 skin fraction. Similarly, compounds were assessed for metabolic stability in human liver by assessing their rate of disappearance from human S9 liver fraction. The protocol below can be used to assess the difference between skin and hepatic metabolism.
The assay was carried out in 96-well microtiter plates at 37° C. Reaction mixtures (25 μL) contained a final concentration of 1 μM test compound, 2 mg/mL liver or skin S9 protein, and 1 mM NADPH in buffer (100 mM potassium phosphate, pH 7.4 buffer with 1 mM EDTA, 3 mM MgCl2). At each of the time points (0, 15, 30, and 60 minutes), 150 μL of quench solution (100% acetonitrile with 0.1% formic acid) with internal standard was transferred to each well. Besides the zero minute controls, mixtures containing the same components except the NADPH were also prepared as the negative control. Verapamil or testosterone was included as a positive control to verify assay performance. Plates were sealed and centrifuged at 4° C. for 15 minutes at 4000 rpm. The supernatant was transferred to fresh plates for LC/MS/MS analysis.
All samples were analyzed on LC/MS/MS using an AB Sciex API 4000 instrument, coupled to a Shimadzu LC-20AD LC Pump system. Analytical samples were separated using a Waters Atlantis T3 dC18 reverse phase HPLC column (20 mm×2.1 mm) at a flow rate of 0.5 mL/min. The mobile phase consisted of 0.1% formic acid in water (solvent A) and 0.1% formic acid in 100% acetonitrile (solvent B).
The extent of metabolism was calculated as the disappearance of the test compound, compared to the 0-min control reaction incubations. Initial rates were calculated for the compound concentration and used to determine t1/2 values and subsequently, the intrinsic clearance, CLint=(0.693) (1/t1/2 (min)) (mL incubation/mg of S9 protein).

MAP2K1 (MEK1) = target: T1, MAP2K1 (MEK1) (Homo sapiens, UniProt Q02750); experiment: MEK Inhibition Assay (Biological Example 1b, Z'-LYTE); conditions: Biological Example 1b (compounds 1, 3, 5, 7-8); read-out: Assay 1: biochemical MEK IC50
T1 construct: purchased ThermoFisher
T1 sequence (Q02750 whole entry): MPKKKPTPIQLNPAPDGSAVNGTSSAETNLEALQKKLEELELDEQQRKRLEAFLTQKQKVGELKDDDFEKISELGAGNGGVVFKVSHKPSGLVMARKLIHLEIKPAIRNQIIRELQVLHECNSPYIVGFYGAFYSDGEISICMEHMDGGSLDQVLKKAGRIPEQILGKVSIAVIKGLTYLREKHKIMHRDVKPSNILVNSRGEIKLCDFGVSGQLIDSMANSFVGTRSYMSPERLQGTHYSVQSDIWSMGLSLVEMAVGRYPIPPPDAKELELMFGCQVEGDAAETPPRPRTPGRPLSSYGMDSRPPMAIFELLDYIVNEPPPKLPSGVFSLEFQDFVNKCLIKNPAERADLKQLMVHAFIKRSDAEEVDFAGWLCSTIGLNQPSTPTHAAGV
Protocol: MEK1 inhibitory activity of compounds were tested using the following procedure (protocol available at thermofisher.com/content/dam/LifeTech/migration/files/drug-discovery/pdfs.par.60256.file.dat/20130430%20ssbk%20customer%20protocol%20and%20assay%20conditions.pdf). The Z′-LYTE biochemical assay (ThermoFisher) employs a fluorescence-based, coupled-enzyme format and is based on the differential sensitivity of phosphorylated and non-phosphorylated peptides to proteolytic cleavage.
Test compounds in 100% DMSO were screened in 1% DMSO (final) in the well. For 10 point titrations, 3-fold serial dilutions are conducted from the starting concentration of 30 μM.
After the 1 hour incubation, 5 μL of a 1:1024 dilution of Development Reagent A (available from Invitrogen, catalog no. PV3295) was added.
ATP solutions were diluted to a 4× working concentration in Kinase Buffer (50 mM HEPES pH 7.5, 0.01% BRIJ-35, 10 mM MgCl2, 1 mM EGTA). ATP Km apparent was previously determined using a Z′-LYTE assay. The Development Reagent was diluted in Development Buffer (available from Invitrogen, catalog no. P3127).
Assay Protocol: 2.5 μL of 4× test compound or 100 nL of 100× Test Compound plus 2.4 μL Kinase Buffer, 5 μL of the 2× Peptide/Kinase Mixture, 2.5 μL of 4×ATP Solution were added to the plates and placed on a shake plate for 30-seconds. The kinase reaction was allowed to proceed for 60-minute at room temperature, before 5 μL of Development Reagent Solution was added, and the mixture agitated for 30-seconds on a shake plate. The mixture was incubated for 60-minute at room temperature. Fluorescence was measured using a plate reader and the data were analyzed.
This control yielded 100% cleaved peptide in the Development Reaction. The 100% Phosphorylation Control, which consisted of a synthetically phosphorylated peptide of the same sequence as the peptide substrate, was designed to allow for the calculation of percent phosphorylation. This control yielded a very low percentage of cleaved peptide in the Development Reaction. The 0% Phosphorylation and 100% Phosphorylation Controls allow for the calculation of the percent phosphorylation achieved in a specific reaction well.
The minimum emission ratio in a screen was established by the 0% Inhibition Control, which contained active kinase. This control was designed to produce a 10-50% phosphorylated peptide in the Kinase Reaction. Cascade assays may produce up to 70% phosphorylated peptide.
A known inhibitor control standard curve, 10 point titration, was run for each individual kinase on the same plate as the kinase to ensure the kinase was inhibited within an expected IC50 range previously determined.
The following controls are prepared for each concentration of Test Compound assayed. […] The expected value for a non-interfering compound should be 100%. Any value outside of 90% to 110% was flagged. […] The expected value for a non-fluorescence compound should be 0%. Any value >20% was flagged.
The data in Table A was calculated. XLfit from IDBS was used. The dose response curve was curve fit to model number 205 (sigmoidal dose-response model).

HCT116 cells = experiment: HCT116 (Kras) GI50 cell-based assay (Cell Titer-Glo); conditions: Homo sapiens, HCT-116, 72 hours, read-out: Assay 3: HCT116 (Kras) GI50
Protocol: (§1) Alternatively, the following procedure can be used to measure cell-based activity. Test compounds were dissolved in DMSO in 10 mM stock. Cell Titer-Glo® 2.0 Luminescent cell viability assay reagent was purchased from Promega (Madison, Wis.). A375 and HCT116 cell lines were purchased from American Type Culture Collection (Manassas, Va.). For A375 cells, cell culture media was DMEM+10% FBS. For HCT116 cells, cell culture media was McCoy's 5A+10% FBS. All media were supplemented with 100 μg/mL of penicillin, and 100 μg/mL of streptomycin. Cultures were maintained at 37° C. in a humidified atmosphere of 5% CO2 and 95% air.
(§2) Test compounds were diluted in DMSO solution with 10-dose and 3-fold dilutions in a source plate starting at 10 mM. […] Luminescence was recorded by Envision 2104 Multilabel Reader (PerkinElmer, Santa Clara, Calif.). The number of viable cells in culture was determined based on quantitation of the ATP present in each culture well. […] Luminescence was recorded by Envision 2104 Multilabel Reader (PerkinElmer, Santa Clara, Calif.). The number of viable cells in culture was determined based on quantitation of the ATP present in each culture well. […] All parameters in the equation were calculated by GraphPad Prism 4 program. […] Accordingly, GI50 is the value of 10^X, where X was calculated by the Curve Fitting Equation when Y=50 using Excel.

A375 cells = experiment: A375 (BRAF) GI50 cell-based assay (Cell Titer-Glo); conditions: Homo sapiens, A-375, 72 hours, read-out: Assay 2: A375 (BRAF) GI50
Protocol: as §1, §2

MEK1 = target: T2, MEK1 (Homo sapiens, UniProt Q02750); experiment: MEK Inhibition Assay (Biological Example 1a, 33P-ATP, P81 filter-binding); conditions: Biological Example 1a (used for compounds 2 and 6); read-out: Assay 1: biochemical MEK IC50
T2 construct: N-terminal His-tagged recombinant human full length protein, expressed in insect cells; His (N); purchased Invitrogen PV3303; host or cells: insect cells
T2 sequence (Q02750 whole entry): as above
Protocol: MEK1 inhibitory activity of compounds were tested using the following procedure.
• Reaction buffer: 20 mM Hepes (pH 7.5), 10 mM MgCl2, 1 mM EGTA, 0.02% Brij35, 0.02 mg/mL bovine serum albumin, 0.1 mM Na3V04, 2 mM DTT, 1% DMSO • Enzyme: MEK1, Invitrogen cat #PV3303 • N-terminal His-tagged recombinant human full length protein, expressed in insect cells. Activated in vitro by RAF1. MW=49.2 kDa, GenBank Accession No. NP_002746. • Substrate: 5 μM ERK2 (K52R), • Kinase-dead mutant, (GenBank Accession No. NM_0011949), aa2-358 with N-terminal His6 tag, MW=43.63 kDa, expressed in E. coli.
The substrate was prepared in freshly prepared Reaction Buffer. The kinase was delivered into the substrate solution and gently mixed. Test compounds were delivered in 100% DMSO into the kinase reaction mixture by Acoustic technology (Echo550; nanoliter range), and incubated for 20 min at room temperature. ^33P-ATP was delivered into the reaction mixture to initiate the reaction. The reaction mixture was incubated for 2 hours at room temperature. Kinase activity was detected by P81 filter-binding method.

[2] = human liver S9, unit min printed in b472 and Table 1, not in this table, read-out: Assay 4: human liver S9 half-life
[3] = human, read-out: Assay 5: human liver S9 intrinsic clearance value (μL/min/mg protein)

| SMILES | half-life at 1 μM [1, 2] [min] | microsomal CLint at 1 μM [1, 3] [µL/min/mg] | IC50 (MAP2K1 (MEK1)) [nM] | GI50 (HCT116 cells) [nM] | GI50 (A375 cells) [nM] | IC50 (MEK1) [nM] | Assay 5: human liver S9 intrinsic clearance value (μL/min/mg protein) ([1]; human liver S9) | half-life at 1 μM ([1]; Table 1, 1 μM test compound, 2 mg/mL S9 protein, NADPH, read-out: Liver S9 t1/2) [min] | microsomal CLint at 1 μM ([1]; Table 1, read-out: CLint (μL/min/mg protein)) [µL/min/mg] |
| --- | --- | --- | --- | --- | --- | --- | --- | --- | --- |
| C#Cc1ccc(Nc2sc3ncccc3c2C(=O)NOCCO)c(F)c1 [Ex. 1, 2-((4-ethynyl-2-fluorophenyl)amino)-N-(2-hydroxyethoxy)thieno[2,3-b]pyridine-3-carboxamide] | 29 | 11.8 | 1030 | 348 | 141 |  |  |  |  |
| CSc1ccc(Nc2sc3ncccc3c2C(=O)NOCCO)c(F)c1 [Ex. 2, 2-((2-fluoro-4-(methylthio)phenyl)amino)-N-(2-hydroxyethoxy)thieno[2,3-b]pyridine-3-carboxamide] | 16 | 21.2 |  | 257 | 145 | 915 |  |  |  |
| O=C(NOCCO)c1c(Nc2ccc(I)cc2F)sc2ncccc12 [Ex. 3, 2-((2-Fluoro-4-iodophenyl)amino)-N-(2-hydroxyethoxy)thieno[2,3-b]pyridine-3-carboxamide] |  |  | 74 |  |  |  | 13.35 | 26 | 13.3 |
| Cc1ccc2c(C(=O)NOCCO)c(Nc3ccc(I)cc3F)sc2n1 [Ex. 5, 2-((2-Fluoro-4-iodophenyl)amino)-N-(2-hydroxyethoxy)-6-methylthieno[2,3-b]pyridine-3-carboxamide] | 54 | 6.36 | 256 |  |  |  |  |  |  |
| COc1ccc2c(C(=O)NOCCO)c(Nc3ccc(I)cc3F)sc2n1 [Ex. 6, 2-((2-fluoro-4-iodophenyl)amino)-N-(2-hydroxyethoxy)-6-methoxythieno[2,3-b]pyridine-3-carboxamide] |  |  |  |  |  | 2910 |  |  |  |
| COc1cnc2sc(Nc3ccc(I)cc3F)c(C(=O)NOCCO)c2c1 [Ex. 7, 2-((2-Fluoro-4-iodophenyl)amino)-N-(2-hydroxyethoxy)-5-methoxythieno[2,3-b]pyridine-3-carboxamide] | 68 | 5.1 | 150 |  |  |  |  |  |  |
